Laboratory results reported in patent publication EP4810052A2, “HCRHR2 SELECTIVE POLYPEPTIDES” (Gubra A/S, priority 2023, dated 2026).
Like-named read-outs stand apart in the source and are kept apart here. Starred links: 1 amine or outer side, 2 acyl side, 3 side chain; linkers in the order of their positions; H or OH if unused. Non-standard residues stand in square brackets, D forms with d. Residues, ends and D or L forms follow the SMILES beside them. Groups on a side chain read outwards from the residue. *: point of attachment. C20 diacid = O=C(O)CCCCCCCCCCCCCCCCCCC(=O)*; Pro(cis-4-F) = O=C(O)[C@@H]1C[C@H](F)CN1; γGlu = O=C(O)[C@H](CCC(=O)[*:2])N[*:1]; Nle = CCCC[C@H](N)C(=O)O; AEEA = NCCOCCOCC(=O)O

Legend:
hCRHR2 = biological target: T1, hCRHR2 (Homo sapiens, UniProt Q13324); test: HTRF cAMP assay, determination of hCRHR2 potency (peptide libraries 5 conc., purified peptides 11 conc.); type: cell-based
T1 sequence (Q13324 1-411): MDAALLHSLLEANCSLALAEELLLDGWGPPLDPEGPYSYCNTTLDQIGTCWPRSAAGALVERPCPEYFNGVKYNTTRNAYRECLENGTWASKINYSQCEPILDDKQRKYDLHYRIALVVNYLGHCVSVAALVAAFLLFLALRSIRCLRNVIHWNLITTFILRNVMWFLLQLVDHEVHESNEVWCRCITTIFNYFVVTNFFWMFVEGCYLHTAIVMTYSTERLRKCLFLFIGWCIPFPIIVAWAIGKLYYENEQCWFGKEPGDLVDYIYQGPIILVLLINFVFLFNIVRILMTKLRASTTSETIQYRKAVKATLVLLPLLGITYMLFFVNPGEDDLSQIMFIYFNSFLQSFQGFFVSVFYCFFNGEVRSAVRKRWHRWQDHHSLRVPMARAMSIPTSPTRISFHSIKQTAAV
In short: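 Potency was read as cAMP accumulation in a stable CHO-K1 line expressing human CRHR2, used in suspension right after thawing. Detection relied on energy transfer from antibody-bound cryptate to d2-cAMP.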

hCRHR1 = biological target: T2, hCRHR1 (Homo sapiens, UniProt P34998); test: HTRF cAMP assay, determination of hCRHR1 potency (peptide libraries 5 conc., purified peptides 11 conc.); type: cell-based
T2 sequence (P34998 24-415): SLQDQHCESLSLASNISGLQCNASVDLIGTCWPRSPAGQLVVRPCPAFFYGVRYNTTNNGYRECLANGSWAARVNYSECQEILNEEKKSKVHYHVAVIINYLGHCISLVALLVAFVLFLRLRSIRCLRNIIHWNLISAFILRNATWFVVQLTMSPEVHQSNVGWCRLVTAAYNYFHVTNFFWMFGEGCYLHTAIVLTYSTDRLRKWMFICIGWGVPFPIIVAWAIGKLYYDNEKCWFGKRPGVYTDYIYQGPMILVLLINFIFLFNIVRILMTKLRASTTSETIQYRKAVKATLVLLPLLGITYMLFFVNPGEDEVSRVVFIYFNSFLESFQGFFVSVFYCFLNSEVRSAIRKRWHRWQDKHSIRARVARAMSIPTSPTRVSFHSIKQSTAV
In short: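 CHO-K1 cells stably expressing human CRHR1, thawed from frozen stocks just before use, were stimulated in suspension with agonist peptides. cAMP was measured by HTRF competitive immunoassay (cryptate anti-cAMP antibody vs d2-cAMP).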

[1] = library peptides, matched molecular pairs L vs Nle in position X^38, read-out: Potency hCRHR2 pEC50 (converted)
[2] = library peptides, matched molecular pairs L vs Nle in position X^38, read-out: Potency hCRHR1 pEC50 (converted)

Row | EC50 (hCRHR2; [1]) | EC50 (hCRHR1; [2]) | EC50 (hCRHR2; Table 3, matched molecular pairs X^38 L vs Nle, peptide library of Example 4, read-out: hCRHR2 pEC50 (converted)) | EC50 (hCRHR1; Table 3, matched molecular pairs X^38 L vs Nle, peptide library of Example 4, read-out: hCRHR1 pEC50 (converted)) | Compound
1 | 0.00126 µM | 158 µM |  |  | CC[C@H](C)[C@H](N)C(=O)N[C@H](C(=O)N[C@@H](CC(C)C)C(=O)N[C@@H](CO)C(=O)N[C@@H](CC(C)C)C(=O)N[C@@H](CC(=O)O)C(=O)N[C@H](C(=O)N1CCC[C@H]1C(=O)N[C@H](C(=O)NCC(=O)N[C@@H](CC(C)C)C(=O)N[C@@H](CC(C)C)C(=O)N[C@@H](CCC(N)=O)C(=O)N[C@H](C(=O)N[C@@H](CC(C)C)C(=O)N[C@@H](CC(C)C)C(=O)N[C@@H](CCC(=O)O)C(=O)N[C@@H](CCC(N)=O)C(=O)N[C@@H](C)C(=O)N[C@@H](CCCNC(=N)N)C(=O)N[C@@H](C)C(=O)N[C@@H](CCCNC(=N)N)C(=O)N[C@@H](CO)C(=O)N[C@@H](CCC(N)=O)C(=O)N[C@@H](CCCNC(=N)N)C(=O)N[C@@H](CCC(=O)O)C(=O)N[C@@H](CCC(=O)O)C(=O)N[C@@H](C)C(=O)N[C@@H](CCCCNC(=O)COCCOCCNC(=O)COCCOCCNC(=O)CC[C@H](NC(=O)CC[C@H](NC(=O)CCCCCCCCCCCCCCCCCCC(=O)O)C(=O)O)C(=O)O)C(=O)N[C@H](C(=O)N[C@@H](CC(N)=O)C(=O)N[C@@H](C)C(=O)N[C@@H](CCC(=O)O)C(=O)N[C@H](C(=O)N[C@@H](CC(C)C)C(=O)N[C@@H](C)C(=O)N[C@@H](CCC(=O)O)C(=O)N[C@H](C(N)=O)C(C)C)[C@@H](C)CC)[C@@H](C)O)[C@@H](C)CC)[C@@H](C)CC)C(C)C)C(C)C [compound 70] (H-IVLSLDVPIGLLQILLEQARARSQREEAK([AEEA-AEEA-γGlu-γGlu-C20 diacid])TNAEILAEV-NH2)
2 | 0.001 µM | 20 µM |  |  | CC[C@H](C)[C@H](N)C(=O)N[C@H](C(=O)N[C@@H](CC(C)C)C(=O)N[C@@H](CO)C(=O)N[C@@H](CC(C)C)C(=O)N[C@@H](CC(=O)O)C(=O)N[C@H](C(=O)N1CCC[C@H]1C(=O)N[C@H](C(=O)NCC(=O)N[C@@H](CC(C)C)C(=O)N[C@@H](CC(C)C)C(=O)N[C@@H](CCC(N)=O)C(=O)N[C@H](C(=O)N[C@@H](CC(C)C)C(=O)N[C@@H](CC(C)C)C(=O)N[C@@H](CCC(=O)O)C(=O)N[C@@H](CCC(N)=O)C(=O)N[C@@H](C)C(=O)N[C@@H](CCCNC(=N)N)C(=O)N[C@@H](C)C(=O)N[C@@H](CCCNC(=N)N)C(=O)N[C@H](C(=O)N[C@@H](C)C(=O)N[C@@H](CCCNC(=N)N)C(=O)N[C@@H](CCC(=O)O)C(=O)N[C@@H](CCC(N)=O)C(=O)N[C@@H](C)C(=O)N[C@@H](CCCCNC(=O)COCCOCCNC(=O)COCCOCCNC(=O)CC[C@H](NC(=O)CC[C@H](NC(=O)CCCCCCCCCCCCCCCCCCC(=O)O)C(=O)O)C(=O)O)C(=O)N[C@H](C(=O)N[C@@H](CC(N)=O)C(=O)N[C@@H](C)C(=O)N[C@@H](CCC(=O)O)C(=O)N[C@H](C(=O)N[C@@H](CC(C)C)C(=O)N[C@@H](C)C(=O)N[C@@H](CCC(=O)O)C(=O)N[C@H](C(N)=O)C(C)C)[C@@H](C)CC)[C@@H](C)O)C(C)C)[C@@H](C)CC)[C@@H](C)CC)C(C)C)C(C)C [compound 90] (H-IVLSLDVPIGLLQILLEQARARVAREQAK([AEEA-AEEA-γGlu-γGlu-C20 diacid])TNAEILAEV-NH2)
3 |  |  | 0.000251 µM | 39.8 µM | CC[C@H](C)[C@H](N)C(=O)N[C@H](C(=O)N[C@@H](CC(C)C)C(=O)N[C@@H](CO)C(=O)N[C@@H](CC(C)C)C(=O)N[C@@H](CC(=O)O)C(=O)N[C@H](C(=O)N1CCC[C@H]1C(=O)N[C@H](C(=O)NCC(=O)N[C@@H](CC(C)C)C(=O)N[C@@H](CC(C)C)C(=O)N[C@@H](CCC(N)=O)C(=O)N[C@H](C(=O)N[C@@H](CC(C)C)C(=O)N[C@@H](CC(C)C)C(=O)N[C@@H](CCC(=O)O)C(=O)N[C@@H](CCC(N)=O)C(=O)N[C@@H](C)C(=O)N[C@@H](CCCNC(=N)N)C(=O)N[C@@H](C)C(=O)N[C@@H](CCCNC(=N)N)C(=O)N[C@@H](CCC(N)=O)C(=O)N[C@@H](C)C(=O)N[C@@H](CCCNC(=N)N)C(=O)N[C@@H](CCC(=O)O)C(=O)N[C@@H](CCC(N)=O)C(=O)N[C@@H](C)C(=O)N[C@@H](CCCCNC(=O)COCCOCCNC(=O)COCCOCCNC(=O)CC[C@H](NC(=O)CC[C@H](NC(=O)CCCCCCCCCCCCCCCCCCC(=O)O)C(=O)O)C(=O)O)C(=O)N[C@H](C(=O)N[C@@H](CC(N)=O)C(=O)N[C@@H](C)C(=O)N[C@@H](CCC(=O)O)C(=O)N[C@H](C(=O)N[C@@H](CC(C)C)C(=O)N[C@@H](C)C(=O)N[C@@H](CCC(=O)O)C(=O)N[C@H](C(N)=O)[C@@H](C)CC)[C@@H](C)CC)[C@@H](C)O)[C@@H](C)CC)[C@@H](C)CC)C(C)C)C(C)C [SEQ ID NO: 29] (H-IVLSLDVPIGLLQILLEQARARQAREQAK([AEEA-AEEA-γGlu-γGlu-C20 diacid])TNAEILAEI-NH2)
4 | 0.0002 µM | 398 µM |  |  | CCCC[C@H](NC(=O)[C@@H](NC(=O)[C@H](CCC(=O)O)NC(=O)[C@H](C)NC(=O)[C@H](CC(N)=O)NC(=O)[C@@H](NC(=O)[C@H](CCCCNC(=O)COCCOCCNC(=O)COCCOCCNC(=O)CC[C@H](NC(=O)CC[C@H](NC(=O)CCCCCCCCCCCCCCCCCCC(=O)O)C(=O)O)C(=O)O)NC(=O)[C@H](C)NC(=O)[C@H](CCC(N)=O)NC(=O)[C@H](CCC(=O)O)NC(=O)[C@H](CCCNC(=N)N)NC(=O)[C@H](C)NC(=O)[C@H](C)NC(=O)[C@H](CCCNC(=N)N)NC(=O)[C@H](C)NC(=O)[C@H](CCCNC(=N)N)NC(=O)[C@H](C)NC(=O)[C@H](CCC(N)=O)NC(=O)[C@@H](NC(=O)[C@H](CC(C)C)NC(=O)[C@H](CC(C)C)NC(=O)[C@@H](NC(=O)[C@H](CCC(N)=O)NC(=O)[C@H](CC(C)C)NC(=O)[C@H](CC(C)C)NC(=O)CNC(=O)[C@@H](NC(=O)[C@@H]1C[C@H](F)CN1C(=O)[C@@H](NC(=O)[C@H](CC(=O)O)NC(=O)[C@H](CC(C)C)NC(=O)[C@H](CO)NC(=O)[C@H](CC(C)C)NC(=O)[C@@H](NC(=O)[C@@H](N)[C@@H](C)CC)C(C)C)C(C)C)[C@@H](C)CC)[C@@H](C)CC)[C@@H](C)O)[C@@H](C)O)[C@@H](C)CC)C(=O)N[C@@H](C)C(=O)N[C@@H](CCC(=O)O)C(=O)N[C@H](C(N)=O)C(C)C [compound 81] (H-IVLSLDV[Pro(cis-4-F)]IGLLQILLTQARARAAREQAK([AEEA-AEEA-γGlu-γGlu-C20 diacid])TNAEI[Nle]AEV-NH2)
